In test [1] the target is T1, pcDHFR (Pneumocystis carinii, UniProt P16184).
T1 sequence (P16184 1-206): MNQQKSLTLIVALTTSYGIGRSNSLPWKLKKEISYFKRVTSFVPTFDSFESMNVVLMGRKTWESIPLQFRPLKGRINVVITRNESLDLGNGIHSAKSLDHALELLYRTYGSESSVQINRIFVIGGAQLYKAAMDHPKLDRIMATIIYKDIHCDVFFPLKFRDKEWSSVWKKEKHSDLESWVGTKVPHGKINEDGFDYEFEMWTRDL
The note with it: previously reported quinazolines; cited from earlier work.

The target in test [2] is T2, tgDHFR (Toxoplasma gondii, UniProt Q07422).
T2 sequence (Q07422 1-610): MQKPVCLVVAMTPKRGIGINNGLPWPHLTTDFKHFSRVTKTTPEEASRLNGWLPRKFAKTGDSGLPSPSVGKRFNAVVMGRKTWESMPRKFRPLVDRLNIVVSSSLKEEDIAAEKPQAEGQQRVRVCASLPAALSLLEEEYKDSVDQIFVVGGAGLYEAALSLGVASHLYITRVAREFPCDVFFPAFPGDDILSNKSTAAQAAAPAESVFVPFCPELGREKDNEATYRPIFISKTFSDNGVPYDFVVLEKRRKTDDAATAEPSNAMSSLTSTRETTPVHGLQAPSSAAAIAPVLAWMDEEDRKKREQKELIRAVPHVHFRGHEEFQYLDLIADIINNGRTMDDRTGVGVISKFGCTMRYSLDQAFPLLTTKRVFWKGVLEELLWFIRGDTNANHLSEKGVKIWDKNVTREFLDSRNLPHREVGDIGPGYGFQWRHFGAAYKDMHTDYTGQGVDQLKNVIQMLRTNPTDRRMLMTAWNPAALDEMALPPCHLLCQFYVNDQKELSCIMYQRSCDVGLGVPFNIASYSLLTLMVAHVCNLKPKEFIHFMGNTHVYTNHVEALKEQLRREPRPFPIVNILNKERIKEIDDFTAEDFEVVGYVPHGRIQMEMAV
As to conditions: previously reported quinazolines; cited from earlier work.

Test [3] has as its target T2, tgDHFR. The test is described as follows: biochemical.
In test [4] the target is T1, pcDHFR. The test is described as follows: Inhibition of P. carinii DHFR. In kind it is biochemical.
Test [5] has as its target T3, maDHFR (Mycobacterium avium, UniProt O30463).
T3 sequence (O30463 1-181): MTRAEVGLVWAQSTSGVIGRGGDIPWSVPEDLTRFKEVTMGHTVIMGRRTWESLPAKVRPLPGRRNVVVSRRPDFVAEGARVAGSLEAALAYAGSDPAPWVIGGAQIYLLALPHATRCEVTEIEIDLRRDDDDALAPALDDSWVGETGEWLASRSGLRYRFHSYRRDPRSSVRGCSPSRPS
The test is described as follows: Inhibition of M. avium DHFR. It is filed as biochemical.

Test [6] concerns the target T4, rlDHFR (Rattus norvegicus, UniProt Q920D2).
T4 sequence (Q920D2 1-187): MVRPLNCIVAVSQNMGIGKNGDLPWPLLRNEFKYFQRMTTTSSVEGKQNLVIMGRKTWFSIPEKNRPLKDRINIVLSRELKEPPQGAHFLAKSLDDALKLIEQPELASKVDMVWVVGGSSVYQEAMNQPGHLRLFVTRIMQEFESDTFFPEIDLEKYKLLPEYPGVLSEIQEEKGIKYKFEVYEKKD
The test is described as follows: Inhibition of rat liver DHFR. In kind it is biochemical.

The values below come from article PMC3885247 (Journal of medicinal chemistry, 2008).

For orientation: IC50 means the concentration at which inhibition is half-maximal. High values mean lower potency, low ones higher potency.

Take `COc1ccc(OC)c(CNc2ccc3nc(N)nc(N)c3c2)c1` [Compound 3]: the Selectivity ratio rl/pc in test [1] was 0.2. Besides, the Selectivity ratio rl/tg in test [2] was 7.

Regarding `COc1ccc(OC)c(CN(CC2CC2)c2ccc3nc(N)nc(N)c3c2)c1` [Compound 12, 2,4-Diamino-6-[N-(2,5-dimethoxybenzyl)-N-cyclopropylmethylamino]quinazoline], the IC50 in test [3] came out at 7.3 nM; in test [4], 25 nM; in test [5], 16 nM; in test [6] it was 9.6 nM. In addition, the “Selectivity ratio rl/tg (IC50 rlDHFR/IC50 tgDHFR)” value in test [3] stood at 1.3. For the same compound, the “Selectivity ratio rl/pc (IC50 rlDHFR/IC50 pcDHFR)” value in test [4] was 0.4. Further, in test [5] (comparator 10), the “Fold decrease in potency against maDHFR compared to 10” value is 5 fold.
